Data reported in patent US20080058373A1, “Compositions and Methods for Treating or Preventing Glaucoma or Progression Thereof” (priority 2006, published 2008).
“And” between values parts separate entries of the source, which are not always exact repeats. Equal values may be shown once.

Experiments:
[1] = system: rabbit eye (anterior chamber paracentesis); assay: Pupillary diameter measurement, rabbit paracentesis model; assay type: in vivo; conditions: for Pupillary diameter T1: −180 min: 50 μl drops, −180 min (basal); for Pupillary diameter T1: −180 min / Pupillary diameter T2: −5 min / Pupillary diameter T3: +115 min: single eyes; for Pupillary diameter T2: −5 min: 5 min before the first paracentesis; for Pupillary diameter T3: +115 min: 5 min before the second paracentesis; for Pupillary diameter Mean Δ(T3 − T1): group mean, n=8 eyes
Protocol: (§1) Each rabbit was placed in a restraint device and tagged with the alphanumeric code. The formulations were instilled (50 μl) into the conjunctival sac of both eyes 180, 120, 90 and 30 min before the first paracentesis; then 15, 30, 90 min after the first paracentesis. To perform the first paracentesis the animals were anaesthetized by intravenous injection of 5 mg/kg Zoletil® (Virbac; 2.5 mg/kg tiletamine HCl and 2.5 mg/kg zolazepam HCl) and one drop of local anesthetic (Novesina®, Novartis) was administered to the eye. Anterior chamber paracentesis was performed with a 26 G needle attached to a tuberculin syringe; the needle was introduced into the anterior chamber through the cornea, taking care not to damage the tissues. Two hours after the first paracentesis, the animals were sacrificed with 0.4 ml Tanax® (Intervet International B.V.) and the second paracentesis was performed. About 100 μl of aqueous humor were removed at the second paracentesis. Aqueous humor was immediately split in four aliquots and stored at −80° C. until analysis. Then both eyes were enucleated and the iris-ciliary body was carefully excised, placed in polypropylene tubes, and stored at −80° C. until analysis.
The pupillary diameter of both eyes was measured with a Castroviejo caliper 180 min and 5 min before the first paracentesis and 5 min before the second paracentesis.

[2] = system: New Zealand White rabbits; assay: Ophthalmic observations (slit lamp, McDonald Shadduck system) in the rabbit IOP study; assay type: in vivo; set-up: key to Cornea Score: 1: Some loss of transparency. Only the epithelium and/or the anterior half of the stoma are involved. The underlying structures are clearly visible although some cloudiness may be readily apparent; key to Conjunctival congestion Score: A flushed, reddish color predominantly confined to the palpebral conjunctiva with some perilimbal injection but primarily confined to the lower and upper parts of the eye from the 4:00 to 7:00 and 11:00 to 1:00 positions; key to Ophthalmic Observation (Slit-Lamp): AN: Appeared normal
Protocol: Prior to placement on study, each animal underwent a pre-treatment ophthalmic examination (slit lamp and indirect ophthalmoscopy). Observations were scored according to the McDonald Shadduck system and recorded using a standardized data collection sheet.
Ophthalmic examinations (slit lamp) were performed prior to the first dosing on Days 5, 12, 22, 26, and 33. Ocular findings were scored according to the McDonald Shadduck system and recorded using a standardized data collection sheet.

[3] = system: primary human corneal epithelial cells; assay: IL-1β-stimulated cytokine production in primary HCECs (30-cytokine Luminex kit); conditions: for Concentration at which a significant inhibitory effect was observed on IL-6 / Concentration at which a significant inhibitory effect was observed on MCP-1 / Concentration at which a significant inhibitory effect was observed on TGF-α / Concentration at which a significant inhibitory effect was observed on TNF-α: 10 ng/ml IL-1β-stimulated HCECs
Protocol: Primary HCECs were seeded in 24-well plates. […] Each treatment was performed in triplicate. Media were collected and used for determination of cytokine content using a 30-cytokine Luminex kit. Cell viability was determined by alamarBlue assay (LP06013).
Median fluorescence intensity (MFI) was used to obtain the concentration of each cytokines in pg/ml based on the standard curve of each cytokine assayed by Luminex. The linear range of the standard curve for each cytokine was used for determination of cytokine concentration. Duplicate values for each sample were averaged. Data were expressed as mean±SD. Statistical analysis was performed using one-way ANOVA-Dunnett's test, and P<0.05 was considered statistically significant.

Leukocytes (PMN) = Leukocytes (PMN) measurement in aqueous humor, rabbit paracentesis model; assay type: in vivo; conditions: for PMN numbers in aqueous humor, Mean: second paracentesis, group mean
Protocol: as §1
For the determination of the number of leukocytes we used a haemocytometer (Improved Neubauer Chamber; Bright-line, Hausser Scientific) and a Polyvar 2 microscope (Reichert-Jung).

[4] = 10 mg/g, treated right eye, Day 5
[5] = IL-1β-stimulated HCECs, 18 h, P<0.05

Cc1ccc2c(NCC(O)(CC(C)(C)c3cc(F)cc4c3OCC4)C(F)(F)F)cccc2n1 (stereo not drawn)
Pupillary diameter T1: −180 min ([1]; 0.1% topical, listed as BOL): 6.5 mm and 7.0 mm and 7.5 mm
Pupillary diameter T2: −5 min ([1]; 0.1% topical, listed as BOL): 6.5 mm and 7.0 mm and 7.5 mm
Pupillary diameter T3: +115 min ([1]; 0.1% topical, listed as BOL): 5.0 mm and 6.0 mm and 6.5 mm and 5.5 mm
Pupillary diameter Mean Δ(T3 − T1) ([1]; 0.1% topical): −1.1 mm
Pupillary diameter T1: −180 min ([1]; 0.5% topical, listed as BOL): 8.0 mm and 7.0 mm and 7.5 mm
Pupillary diameter T2: −5 min ([1]; 0.5% topical, listed as BOL): 8.0 mm and 7.0 mm and 7.5 mm
Pupillary diameter T3: +115 min ([1]; 0.5% topical, listed as BOL): 6.5 mm and 6.0 mm and 7.0 mm
Pupillary diameter Mean Δ(T3 − T1) ([1]; 0.5% topical): −1.0 mm
Pupillary diameter T1: −180 min ([1]; 1% topical, listed as BOL): 6.0 mm and 6.5 mm
Pupillary diameter T2: −5 min ([1]; 1% topical, listed as BOL): 6.0 mm and 6.5 mm and 7.0 mm
Pupillary diameter T3: +115 min ([1]; 1% topical, listed as BOL): 5.5 mm and 5.0 mm and 6.0 mm
Pupillary diameter Mean Δ(T3 − T1) ([1]; 1% topical): −0.9 mm
Slit-lamp ocular findings (other findings) ([2]; 1 mg/g suspension, dosed right eye (Group D, No. 3043)): a subconjunctival hemorrhage
Ophthalmic Observation (Slit-Lamp) ([2]; 1 mg/g, treated right eye, Day 5, 12, 22, 26): AN
Ophthalmic Observation (Slit-Lamp) ([2]; 1 mg/g, treated right eye, Day 5, 12, 22, 26, 33): AN
Ophthalmic Observation (Slit-Lamp) ([2]; 1 mg/g, treated right eye, Day 5, 12, 26, 33): AN
Conjunctival congestion Score ([2]; 1 mg/g, treated right eye, Day 22): 1
Conjunctival congestion Score ([2]; 5 mg/g, treated right eye, Day 5): 1
Ophthalmic Observation (Slit-Lamp) ([2]; 5 mg/g, treated right eye, Day 5, 12): AN
Ophthalmic Observation (Slit-Lamp) ([2]; 5 mg/g, treated right eye, Day 5, 12, 22): AN
Ophthalmic Observation (Slit-Lamp) ([2]; 5 mg/g, treated right eye, Day 5, 12, 22, 26, 33): AN
Ophthalmic Observation (Slit-Lamp) ([2]; 5 mg/g, treated right eye, Day 5, 12, 26, 33): AN
Ophthalmic Observation (Slit-Lamp) ([2]; 5 mg/g, treated right eye, Day 5, 12, 33): AN
Ophthalmic Observation (Slit-Lamp) ([2]; 5 mg/g, treated right eye, Day 12, 22, 26, 33): AN
Conjunctival congestion Score ([2]; 5 mg/g, treated right eye, Day 22): 1
Conjunctival congestion Score ([2]; 5 mg/g, treated right eye, Day 22, 26): 1
Conjunctival congestion Score ([2]; 5 mg/g, treated right eye, Day 26): 1
Slit-lamp ocular findings (other findings) ([2]; 10 mg/g suspension, dosed right eye (Group B, No. 3083)): a pinpoint corneal scar
Ophthalmic Observation (Slit-Lamp) [2, 4]: AN
Surface area of cornea involvement Score [2, 4]: 1 (1-25% area of stromal cloudiness.)
Conjunctival congestion Score ([2]; 10 mg/g, treated right eye, Day 5, 12): 1
Ophthalmic Observation (Slit-Lamp) ([2]; 10 mg/g, treated right eye, Day 5, 12, 22, 26, 33): AN
Ophthalmic Observation (Slit-Lamp) ([2]; 10 mg/g, treated right eye, Day 5, 12, 22, 33): AN
Ophthalmic Observation (Slit-Lamp) ([2]; 10 mg/g, treated right eye, Day 5, 22, 26, 33): AN
Cornea Score ([2]; 10 mg/g, treated right eye, Day 5, pinpoint corneal scar): 1^(2)
Conjunctival congestion Score ([2]; 10 mg/g, treated right eye, Day 12): 1
Ophthalmic Observation (Slit-Lamp) ([2]; 10 mg/g, treated right eye, Day 12, 22, 26, 33): AN
Ophthalmic Observation (Slit-Lamp) ([2]; 10 mg/g, treated right eye, Day 22, 26, 33): AN
Conjunctival congestion Score ([2]; 10 mg/g, treated right eye, Day 26): 1
Concentration at which a significant inhibitory effect was observed on IL-6 ([3]; 18 h, P<0.05): 1 nM
Concentration at which a significant inhibitory effect was observed on MCP-1 ([3]; 18 h, P<0.05): 10 nM
Concentration at which a significant inhibitory effect was observed on TGF-α ([3]; 18 h, P<0.05): 10 nM
Concentration at which a significant inhibitory effect was observed on TNF-α ([3]; 18 h, P<0.05): 10 nM
Potency versus dexamethasone for inhibition of G-CSF production ([3]; IL-1β-stimulated HCECs): more potent than dexamethasone
Potency versus dexamethasone for inhibition of GM-CSF, IL-8 and RANTES production ([3]; IL-1β-stimulated HCECs): somewhat less potent than dexamethasone
Potency versus dexamethasone for inhibition of IL-6, IL-7, TGF-α, TNF-α, VGEF and MCP-1 production ([3]; IL-1β-stimulated HCECs): comparable potency
Inhibition of IL-1β-stimulated production of 6 cytokines (IL-6, IL-7, MCP-1, TGF-α, TNF-α and VEGF) ([3]; IL-1β-stimulated HCECs, 18 h): significantly inhibited
Concentration at which a significant inhibitory effect was observed on G-CSF [3, 5]: 10 µg/mL
Concentration at which a significant inhibitory effect was observed on GM-CSF [3, 5]: 10 nM
Concentration at which a significant inhibitory effect was observed on RANTES [3, 5]: no significant effect
PMN numbers in aqueous humor, Mean (Leukocytes (PMN); 0.1% topical): 28.333 number/μl
PMN numbers in aqueous humor, Mean (Leukocytes (PMN); 0.5% topical): 21.250 number/μl
PMN numbers in aqueous humor (raw data) (Leukocytes (PMN); 1% topical, samples collected at the second paracentesis, single eyes, listed as BOL): 30 number/μl and 20 number/μl and 40 number/μl
PMN numbers in aqueous humor, Mean (Leukocytes (PMN); 1% topical): 28.750 number/μl

C[C@@H]1C[C@H]2[C@@H]3CCC4=CC(=O)C=C[C@]4(C)[C@@]3(F)[C@@H](O)C[C@]2(C)[C@@]1(O)C(=O)CO [dexamethasone, reference compound]
Pupillary diameter T1: −180 min ([1]; 0.1% topical, listed as Dex): 6.0 mm and 7.0 mm and 5.5 mm and 6.5 mm
Pupillary diameter T2: −5 min ([1]; 0.1% topical, listed as Dex): 5.5 mm and 6.5 mm and 6.0 mm and 7.0 mm and 7.5 mm
Pupillary diameter T3: +115 min ([1]; 0.1% topical, listed as Dex): 5.5 mm and 6.0 mm and 4.5 mm and 5.0 mm and 6.5 mm
Pupillary diameter Mean Δ(T3 − T1) ([1]; 0.1% topical): −0.8 mm
Conjunctival congestion Score ([2]; 0.1% 4 × daily, treated right eye, Day 5): 1
Ophthalmic Observation (Slit-Lamp) ([2]; 0.1% 4 × daily, treated right eye, Day 5, 12): AN
Ophthalmic Observation (Slit-Lamp) ([2]; 0.1% 4 × daily, treated right eye, Day 5, 12, 22): AN
Ophthalmic Observation (Slit-Lamp) ([2]; 0.1% 4 × daily, treated right eye, Day 5, 12, 22, 26): AN
Ophthalmic Observation (Slit-Lamp) ([2]; 0.1% 4 × daily, treated right eye, Day 5, 12, 22, 26, 33): AN
Ophthalmic Observation (Slit-Lamp) ([2]; 0.1% 4 × daily, treated right eye, Day 5, 12, 26, 33): AN
Ophthalmic Observation (Slit-Lamp) ([2]; 0.1% 4 × daily, treated right eye, Day 12, 22, 26): AN
Conjunctival congestion Score ([2]; 0.1% 4 × daily, treated right eye, Day 22): 1
Concentration at which a significant inhibitory effect was observed on IL-6 ([3]; 18 h, P<0.05): 1 nM
Concentration at which a significant inhibitory effect was observed on MCP-1 ([3]; 18 h, P<0.05): 10 nM
Concentration at which a significant inhibitory effect was observed on TGF-α ([3]; 18 h, P<0.05): 10 nM
Concentration at which a significant inhibitory effect was observed on TNF-α ([3]; 18 h, P<0.05): 10 nM
Concentration at which a significant inhibitory effect was observed on RANTES [3, 5]: 1 µM
PMN numbers in aqueous humor, Mean (Leukocytes (PMN); 0.1% topical): 30.000 number/μl
